Reference: patent US20260109725A1, “MACROLIDE SENOLYTIC COMPOUNDS” (LUNELLA BIOTECH, INC., priority 2022, published 2026)

Legend:
microorganism = experiment: antibiotic activity screen, in vitro broth microdilution assay (overall statement); type: cell-based; conditions: vs azithromycin and erythromycin / reference compounds
Procedure: (§1) This is advantageous because use of the compounds of the present approach as therapeutic agents will have less of an impact on the development of antibiotic resistance. For example, embodiments of the present approach were screened for antibiotic activity, using the in vitro broth microdilution assay. […] The assay conditions, described by the Clinical and Laboratory Standards Institute were used for preparation of the inoculum, growth medium, and end point reading. Test substance was dissolved in 100% DMSO, suspended completely by vortexing, diluted by 2-fold serial titrations in the same vehicle, for a total of 11 test concentrations. A 4 μL aliquot of each dilution was added to 196 μL of broth medium seeded with the organism suspension in wells of a 96 well plate (bacterial count: 2-8×10(5) colony forming units/mL final). The final volume was 200 μL in each well and the final DMSO concentration was 2 percent. Test concentrations were 0.1 to 100 μM. Following incubation, the test plates were visually examined and wells were scored for growth or complete growth inhibition to define the minimum inhibitory concentration. Each test substance was evaluated with replicates. Vehicle controls and an active reference agent were used as blank and positive controls. Note that MRSA represents methicillin-resistant Staphylococcus aureus, and VRE represents vancomycin resistant Enterococcus.

control MRC-5 cells = experiment: xCELLigence assay, control MRC-5 cells; type: cell-based, human; conditions: 50 μM, 5 days
Description: (§2) Senescent cells undergo the so-called senescence-associated secretory phenotype (SASP), which involves dramatic increases in the synthesis and secretion of proteins. The xCELLigence assay system was used to assess whether protein measurement assays under-estimate the senolytic activity of tested compounds. […] The real-time xCELLigence assay system thus compliments the more static SRB assay, and offers a more direct visualization of the potential senolytic effects of compounds during drug screening.
(§3) The xCELLigence assay was used to confirm senolytic activity for Compound [I]. MRC-5 fibroblasts were used for the assay. […] The data is expressed as the final cell index, the average±the standard error of mean, for the control cells, control cells treated with Compound [I], BrdU-treated control cells, and BrdU-treated fibroblasts subjected to Compound [I] at 50 μM, respectively. The senescent MRC-5 cells were pretreated with BrdU for 8 days to induce senescence, before exposure to Compound [I] for another 5 days. Compared to the control, Compound [I] treatment had no effect on the viability of normal fibroblasts, but killed over 90% of the BrdU-treated fibroblasts.
(§4) xCELLigence Assay System: xCELLigence RTCA System (ACEA Biosciences Inc.). […] This approach allows the quantification of the onset and kinetics of the cellular response. […]

normal MRC-5 cells = experiment: Images of MRC-5 fibroblasts without BrdU pre-treatment; type: cell-based, human; conditions: 50 μM
Procedure: (§5) FIGS. 3A and 3B are images of MRC-5 fibroblasts without and with BrdU pre-treatment, respectively, treated with Compound [I] at a concentration of 50 μM. […] The scale bar in the upper-right of FIGS. 3B and 3C represents 20 μm.
(§6) BrdU Assay: Cells were plated into 24-well plates. Next day, half of the plate was treated with 100 μM of BrdU while control wells were treated with vehicle only (DMSO) and incubated for 8 days at 37° C. in a 5% CO2 humidified atmosphere. After 8 days of BrdU treatment cells were treated with various test compounds or drugs (e.g., azithromycin, roxithromycin, telithromycin, erythromycin, etc.) for another 3-5 days. BrdU or vehicle treatments were continued during the drug treatments as well.

senescent MRC-5 cells = experiment: Images of MRC-5 fibroblasts with BrdU pre-treatment; type: cell-based, human; conditions: 50 μM
Procedure: as §5, §6

[1] = test system: MRC-5 cells treated with BrdU; experiment: xCELLigence assay, BrdU-treated MRC-5 cells; type: cell-based, human; conditions: 50 μM, 5 days after 8 days BrdU, compared to the control
Description: as §2, §3, §4

[2] = test system: Staphylococcus aureus ATCC 33591 MRSA; experiment: in vitro broth microdilution assay (MIC); type: cell-based
Procedure: as §1

[3] = test system: Streptococcus pneumoniae ATCC 49619; experiment: in vitro broth microdilution assay (MIC); type: cell-based; conditions: ATCC49619; Streptococcus pneumoniae ATCC 49619, QC strain
Procedure: as §1

[4] = test system: Escherichia coli JW5503 DEL-tolC; experiment: in vitro broth microdilution assay (MIC); type: cell-based; conditions: JW5503DELTOLC
Procedure: as §1

[5] = test system: Enterococcus faecium ATCC 700221 VanA VRE; experiment: in vitro broth microdilution assay (MIC); type: cell-based
Procedure: as §1

[6] = test system: Klebsiella pneumoniae ATCC 43816; experiment: in vitro broth microdilution assay (MIC); type: cell-based; conditions: ATCC43816
Procedure: as §1

[7] = test system: Escherichia coli ATCC 25922; experiment: in vitro broth microdilution assay (MIC); type: cell-based; conditions: ATCC25922; Escherichia coli ATCC 25922, QC strain
Procedure: as §1

[8] = test system: Acinetobacter baumannii ATCC 17978; experiment: in vitro broth microdilution assay (MIC); type: cell-based; conditions: ATCC17978
Procedure: as §1

[9] = test system: Enterococcus faecalis ATCC 29212; experiment: in vitro broth microdilution assay (MIC); type: cell-based; conditions: ATCC29212; Enterococcus faecalis ATCC 29212, QC strain
Procedure: as §1

[10] = test system: Haemophilus influenzae ATCC 49247; experiment: in vitro broth microdilution assay (MIC); type: cell-based; conditions: ATCC49247; Haemophilus influenzae ATCC 49247, QC strain
Procedure: as §1

[11] = test system: Staphylococcus aureus ATCC 29213; experiment: in vitro broth microdilution assay (MIC); type: cell-based; conditions: ATCC29213; Staphylococcus aureus ATCC 29213, QC strain
Procedure: as §1

[12] = test system: Pseudomonas aeruginosa ATCC 27853; experiment: in vitro broth microdilution assay (MIC); type: cell-based; conditions: ATCC27853; Pseudomonas aeruginosa ATCC 27853, QC strain
Procedure: as §1

`CC[C@H]1OC(=O)[C@H](C)[C@@H](O[C@@H]2C[C@@](C)(OC)[C@@H](O)[C@H](C)O2)[C@H](C)[C@@H](O[C@@H]2O[C@H](C)C[C@H](N(C)C)[C@H]2OC(=O)OCc2ccc(O[C@@H]3O[C@H](COC(C)=O)[C@H](OC(C)=O)[C@H](OC(C)=O)[C@H]3OC(C)=O)c([N+](=O)[O-])c2)[C@](C)(O)C[C@@H](C)CN(C)[C@H](C)[C@@H](O)[C@]1(C)O` [Compound [I], [(2R,3S,4S,5R,6S)-3,4,5-triacetoxy-6-[4-[[(2S,3R,4S,6R)-4-(dimethylamino)-2-[[(2R,3S,4R,5R,8R,10R,11R,12S,13S,14R)-2-ethyl-3,4,10-trihydroxy-13-[(2S,4R,5S,6S)-5-hydroxy-4-methoxy-4,6-dimethyl-tetrahydropyran-2-yl]oxy-3,5,6,8,10,12,14-heptamethyl-15-oxo-1-oxa-6-azacyclopentadec-11-yl]oxy]-6-methyl-tetrahydropyran-3-yl]oxycarbonyloxymethyl]-2-nitro-phenoxy]tetrahydropyran-2-yl]methyl acetate] was tested, and the “antibiotic activity compared to macrolide antibiotics” value (microorganism) was “less antibiotic activity”, the “effect on viability of normal fibroblasts (xCELLigence final cell index)” value (control MRC-5 cells) was “no effect” and the “effect on normal MRC-5 cells (images)” value (normal MRC-5 cells) was “little effect”. For the same compound, the “effect on senescent MRC-5 cells (images)” value (senescent MRC-5 cells) was “induced cell death”, the “BrdU-treated fibroblasts killed (xCELLigence final cell index)” value [1] was “over 90%” and the MIC [2] was greater than 100 µM. The MIC [3] was 0.78 µM, the MIC [4] was 6.25 µM and the MIC [5] was greater than 100 µM. It also gave an MIC [6] of 50 µM, an MIC [7] of 12.5 µM and an MIC [8] of 100 µM. It also gave an MIC [9] of 25 µM, an MIC [10] of 3.12 µM and an MIC [11] of 6.25 µM. For the same compound, the MIC [12] was greater than 100 µM.
